One may read the pKi as the Ki on a negative log10 scale, so that one unit is a factor of ten.

pKi: −log10 of the molar value. Read-outs that look alike come from different tables or passages of the source.

The target of test [1] is T1, human estrogen receptor-alpha (Homo sapiens, UniProt P03372).
T1 construct: made in house; host or cells: yeast strain BJ2168 (copper induced)
T1 sequence (P03372 1-595): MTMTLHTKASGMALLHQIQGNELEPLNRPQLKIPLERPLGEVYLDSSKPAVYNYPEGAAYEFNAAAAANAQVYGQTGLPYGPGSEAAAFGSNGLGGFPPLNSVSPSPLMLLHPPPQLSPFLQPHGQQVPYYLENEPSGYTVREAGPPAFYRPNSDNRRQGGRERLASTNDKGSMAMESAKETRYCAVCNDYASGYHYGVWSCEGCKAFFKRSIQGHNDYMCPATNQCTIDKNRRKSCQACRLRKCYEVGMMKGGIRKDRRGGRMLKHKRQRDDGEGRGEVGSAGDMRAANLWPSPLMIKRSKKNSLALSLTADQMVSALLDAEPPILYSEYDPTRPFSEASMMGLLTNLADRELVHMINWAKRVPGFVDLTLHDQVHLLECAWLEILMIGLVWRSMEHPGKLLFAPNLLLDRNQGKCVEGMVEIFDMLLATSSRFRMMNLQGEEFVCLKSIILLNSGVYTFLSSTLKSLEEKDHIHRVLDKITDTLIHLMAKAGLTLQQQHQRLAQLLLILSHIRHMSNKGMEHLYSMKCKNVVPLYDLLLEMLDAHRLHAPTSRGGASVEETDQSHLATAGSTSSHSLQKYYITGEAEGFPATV
Kind of test: soluble estrogen receptor-alpha (ER-α) binding assay, [3H]-estradiol. From the text: For soluble estrogen receptor-alpha (ER-α) binding assays, [^3 H]- Estradiol (120-140 Ci/mmol) was purchased from New England Nuclear (Boston, Mass.), 17-beta estradiol was purchased from Sigma Chemical Co. (St. Louis, Mo.), CHAPS and DTT were purchased from Boehringer Mannheim GmbH (W. Germany) and all other reagents were purchased from Sigma.
The human estrogen receptor-alpha cDNA was cloned into a yeast vector termed pYhERα and used to transform wild type yeast strain BJ2168 following the protocol outlined by Pham, T. A., Hwung Y. P., Santiso-Mere,D., McDonnell D. P., O'Malley, B. W., Ligand-Dependent and Independent Function of the Transactivation Regions of the Human Estrogen Receptor in Yeast, Mol. Endocrinol. […] The yeast was induced with copper for 16 hours after which the cells were harvested, washed and the receptor extract prepared in cold buffer via a Bead Beater (BioSpec Products, Bartlesville, Okla.). Aliquots of the receptor typically contained 5-10 mg/ml of total protein and were stored at -80° C. until used. Estradiol or other competing compounds were prepared as 5 mM stock solutions in either 100% ethanol or DMSO and serial dilutions were carried out in 1:1 DMSO-ethanol. The assay buffer consisted of the following: 300 mM potassium chloride, 10 mM Trizma Base, 2 mM DTT and 5 mM CHAPS, pH=7.5 at room temperature.
Assays were set up using a 96-well minitube system and incubations were carried out at 4° C. for 18 hours. Equilibrium under these conditions of buffer and temperature was achieved by 6-8 hours. Nonspecific binding was defined as that binding remaining in the presence of 1000 nM unlabeled estradiol. […] The amount of receptor-ligand complex was determined by liquid scintillation counting of the hydroxyapatite pellet after the addition of […] EcoScint A scintillation cocktail from National Diagnostics (Atlanta, Ga.).
After correcting for nonspecific binding, IC50 values were determined. […] The IC50 values were determined graphically from a log-logit plot of the data.

Test [2] concerns the target T2, human glucocorticoid receptor-α [GRX] isoform (Homo sapiens, UniProt P04150).
T2 construct: purchased Ligand Pharmaceuticals (San Diego, Calif.); host or cells: insect SF21 cells (baculovirus)
T2 sequence (P04150 1-777): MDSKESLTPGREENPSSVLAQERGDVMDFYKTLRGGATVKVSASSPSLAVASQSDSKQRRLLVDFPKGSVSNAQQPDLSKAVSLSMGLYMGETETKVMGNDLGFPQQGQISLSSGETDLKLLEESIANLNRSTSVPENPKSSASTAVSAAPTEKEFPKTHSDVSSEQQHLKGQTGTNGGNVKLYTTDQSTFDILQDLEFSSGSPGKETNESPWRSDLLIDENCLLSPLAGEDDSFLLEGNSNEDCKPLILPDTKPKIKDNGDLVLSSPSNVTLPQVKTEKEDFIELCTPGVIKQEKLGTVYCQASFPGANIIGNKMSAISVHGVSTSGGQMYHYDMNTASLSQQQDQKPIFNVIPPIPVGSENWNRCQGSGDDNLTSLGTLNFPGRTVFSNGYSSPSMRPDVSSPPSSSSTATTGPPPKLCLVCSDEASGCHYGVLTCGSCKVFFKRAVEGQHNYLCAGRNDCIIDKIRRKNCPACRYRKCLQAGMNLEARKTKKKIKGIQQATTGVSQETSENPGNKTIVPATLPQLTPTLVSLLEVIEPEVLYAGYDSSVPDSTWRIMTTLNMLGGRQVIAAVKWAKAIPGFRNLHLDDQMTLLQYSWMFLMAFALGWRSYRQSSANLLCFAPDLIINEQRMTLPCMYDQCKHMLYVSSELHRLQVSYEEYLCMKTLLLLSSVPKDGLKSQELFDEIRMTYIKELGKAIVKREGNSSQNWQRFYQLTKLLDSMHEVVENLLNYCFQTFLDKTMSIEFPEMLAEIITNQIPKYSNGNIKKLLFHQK
Description: glucocorticoid receptor (GR) cytosol binding assay, [3H]-dexamethasone. The note with it: displacement of [3H]-Dex (~0.9 nM), 4° C. overnight. On the technique in general: In a radioligand displacement assay an active substance lowers the binding of a labelled ligand.
Description: Briefly, cytosol preparations of human glucocorticoid receptor-α [GRX] isoform and human progesterone receptor-A [PRA] isoform were obtained from Ligand Pharmaceuticals (San Diego, Calif.). Both receptor cDNAs were cloned into baculovirus expression vectors and expressed in insect SF21 cells. [^3 H]-dexamethasone (Dex, specific activity 82-86 Ci/mmole) and [^3 H]-progesterone (Prog, specific activity 97-102 Ci/mmol) were purchased from Amersham Life Sciences (Arlington Heights, Ill.). Glass fiber type C multiscreen MAFC NOB plates were from Millipore (Burlington, Mass.). Hydroxyapatide Bio-Gel HTP gel was obtained from Bio-Rad Laboratories (Hercules, Calif.). Tris(hydroxymethyl)aminomethane (Tris), ethylenediaminetetraacetic acid (EDTA), glycerol, dithiothreitol (DTT) and sodium moylybdate were obtained from Sigma Chemicals (St. Louis, Mo.). […]
After an overnight incubation, 50 μL of hydroxyapatite (25% weight/volume) slurry were added to each well and plates were incubated for 10 min at 4° C. in a plate shaker. […] The amount of radioactivity was determined with a Packard TopCount plate reader.
The Ki of test compounds was determined using the Cheng-Prusoff equation Ki =IC50 /(1+[L*]/[KL ]) where L* is the concentration of radioligand and KL is the dissociation constant of the radioligand determined from saturation analysis.

Where [3] appears, read: displacement of [3H]-estradiol (2-3 nM), 4° C., 18 hours, read-out: Ki ER-α.

As for `CN(C)c1ccc(C(c2ccc(N(C)C)cc2)c2cc(Cl)ccc2Cl)cc1` [Example 24, 4',4"bis(dimethylamino)-2,5-dichlorotriphenylmethane], the pKi in test [1] was < 5.00.

Regarding `CC(=O)OCCN(C)c1ccc(C(c2ccc(N(C)CCOC(C)=O)cc2)c2cc([N+](=O)[O-])ccc2Cl)cc1` [Example 31, 4',4"bis(N-(2-acetoxyethyl) N-methylamino)-2-chloro-5-nitrotriphenylmethane], in test [1] (setting [3]), the pKi is < 5.00.

Take `CN(CCO)c1ccc(C(c2ccc(N(C)CCO)cc2)c2cc([N+](=O)[O-])ccc2Cl)cc1` [Example 32, 4',4"bis(N-(2-hydroxyethyl) N-methylamino)-2-chloro-5-nitrotriphenylmethane]: the pKi in test [1] (setting [3]) was < 5.00.

As for `CN(C(=O)OC(C)(C)C)c1ccc(C(c2ccc(N(C)C(=O)OC(C)(C)C)cc2)c2cc([N+](=O)[O-])ccc2Cl)cc1` [Example 35, 4',4"bis(N-(t-butoxycarbonyl) N-methylamino)-2-chloro-5-nitrotriphenylmethane], the pKi in test [2] was 5.34.

In test [2], `CN(C)c1ccc(C(c2ccc(N(C)C)cc2)c2cc(NC(=O)/C=C/c3ccc([N+](=O)[O-])cc3)ccc2Cl)cc1` [Example 61, 4',4"bis(dimethylamino)-2-chloro-5-(4-nitrocinnamido)triphenylmethane] had a pKi of 5.34.
